Assay results published in patent US9006221B2, “Method of modulating ship activity” (H. Lee Moffitt Cancer Center and Reserach Institute, Inc., priority 2008, dated 2015).
Entries after “also recorded” stand apart in the source; their conditions may differ.

Test system: priming of allogeneic T cell responses by C57Bl6/J splenocytes
Assay: One-way mixed leukocyte reaction (MLR), stimulator splenocytes treated in vitro
Assay type: cell-based, mouse
Conditions: splenocytes cultured with compound 72 hr, added at 0, 24 and 48 hr
Protocol: Mean proliferation of 100K BALB/C responders as measured by ^3H-Thymidine uptake after exposure to 200K irradiated BL6 stimulators that were treated with the indicated compound, 1×DMSO or 1× EtOH prior to initiation of the mixed leukocyte reaction (MLR). 1×DMSO serves as the allogeneic MLR positive control for all compounds with the exception of HLM85321 for which 1× EtOH is the positive control. [*p<0.05, **p<0.01].
Spleen cells and lymphe node LN cells are normally robust stimulators of allogeneic T cell responses in the one-way mixed leukocyte reaction (MLR) assay, but they are very poor stimulators when obtained from mice with germline or induced SHIP-deficiency. […]
Mixed leukocyte reactions (MLR): Following RBC lysis, irradiated (2000 Rads) BL6 splenocytes (stimulators) at 8×10^5 cells/well were combined with BALB/c splenocytes (responders) at 4×10^5 cells/well in a one-way MLR assay. […] Incorporated [3H]thymidine was quantitated using a Packard TopCount NXT. Specific [3H]thymidine incorporation into genomic DNA was calculated as the average of the mean (±SEM) of sextuplicate wells. […]

`OC(c1cc(-c2ccccc2)nc2c1ccc1ccccc12)C1CCCCN1` (stereo not shown) [NSC13480, (2-phenylbenzo[h]quinolin-4-yl)-piperidin-2-ylmethanol] was tested, and the “ability of splenocytes to prime allogeneic T cell responses by BALB/C responders (3H-thymidine uptake)” value was “significantly inhibited; also recorded: complete inability to prime allogeneic T cell responses”.
